# Assay results: ChEMBL document CHEMBL5154747, “Discovery of new carbonic anhydrase IX inhibitors as anticancer agents by toning the hydrophobic and hydrophilic rims of the active site to encounter the dual-tail approach” (Eur J Med Chem, 2022)
# Molecular target: Carbonic anhydrase 9 (Homo sapiens, UniProt Q16790)
# Assay: Inhibition of recombinant human CA 9 preincubated for 15 mins by phenol red dye based stopped flow CO2 hydration assay
# Conditions: not given
row,SMILES,Ki
1,CCCCc1nc(/C=N/Nc2nc(Nc3ccccc3)nc(Nc3ccc(S(N)(=O)=O)cc3)n2)c(Cl)[nH]1,259 nM

# Test system: CCRF-CEM
# Assay: Anticancer activity against human CCRF-CEM cells assessed as cell growth inhibition at 10 uM incubated for 48 hrs by SRB assay relative to control
# Type: functional
# Conditions: read-out: GI
row,SMILES,inhibition of growth at 10 µM
1,CCCCc1nc(/C=N/Nc2nc(Nc3ccccc3)nc(Nc3ccc(S(N)(=O)=O)cc3)n2)c(Cl)[nH]1,87%

# Test system: HL-60(TB)
# Assay: Anticancer activity against human HL-60(TB) cells assessed as cell growth inhibition at 10 uM incubated for 48 hrs by SRB assay relative to control
# Type: functional
# Conditions: read-out: GI
row,SMILES,inhibition of growth at 10 µM
1,CCCCc1nc(/C=N/Nc2nc(Nc3ccccc3)nc(Nc3ccc(S(N)(=O)=O)cc3)n2)c(Cl)[nH]1,< 10%

# Test system: K562
# Assay: Anticancer activity against human K562 cells assessed as cell growth inhibition at 10 uM incubated for 48 hrs by SRB assay relative to control
# Type: functional
# Conditions: read-out: GI
row,SMILES,inhibition of growth at 10 µM
1,CCCCc1nc(/C=N/Nc2nc(Nc3ccccc3)nc(Nc3ccc(S(N)(=O)=O)cc3)n2)c(Cl)[nH]1,62%

# Test system: RPMI-8226
# Assay: Anticancer activity against human RPMI-8226 cells assessed as cell growth inhibition at 10 uM incubated for 48 hrs by SRB assay relative to control
# Type: functional
# Conditions: read-out: GI
row,SMILES,inhibition of growth at 10 µM
1,CCCCc1nc(/C=N/Nc2nc(Nc3ccccc3)nc(Nc3ccc(S(N)(=O)=O)cc3)n2)c(Cl)[nH]1,< 10%

# Test system: SR
# Assay: Anticancer activity against human SR cells assessed as cell growth inhibition at 10 uM incubated for 48 hrs by SRB assay relative to control
# Type: functional
# Conditions: read-out: GI
row,SMILES,inhibition of growth at 10 µM
1,CCCCc1nc(/C=N/Nc2nc(Nc3ccccc3)nc(Nc3ccc(S(N)(=O)=O)cc3)n2)c(Cl)[nH]1,88%

# Test system: EKVX
# Assay: Anticancer activity against human EKVX cells assessed as cell growth inhibition at 10 uM incubated for 48 hrs by SRB assay relative to control
# Type: functional
# Conditions: read-out: GI
row,SMILES,inhibition of growth at 10 µM
1,CCCCc1nc(/C=N/Nc2nc(Nc3ccccc3)nc(Nc3ccc(S(N)(=O)=O)cc3)n2)c(Cl)[nH]1,< 10%

# Test system: HOP-92
# Assay: Anticancer activity against human HOP-92 cells assessed as cell growth inhibition at 10 uM incubated for 48 hrs by SRB assay relative to control
# Type: functional
# Conditions: read-out: GI
row,SMILES,inhibition of growth at 10 µM
1,CCCCc1nc(/C=N/Nc2nc(Nc3ccccc3)nc(Nc3ccc(S(N)(=O)=O)cc3)n2)c(Cl)[nH]1,39%

# Test system: NCI-H23
# Assay: Anticancer activity against human NCI-H23 cells assessed as cell growth inhibition at 10 uM incubated for 48 hrs by SRB assay relative to control
# Type: functional
# Conditions: read-out: GI
row,SMILES,inhibition of growth at 10 µM
1,CCCCc1nc(/C=N/Nc2nc(Nc3ccccc3)nc(Nc3ccc(S(N)(=O)=O)cc3)n2)c(Cl)[nH]1,< 10%

# Test system: NCI-H460
# Assay: Anticancer activity against human NCI-H460 cells assessed as cell growth inhibition at 10 uM incubated for 48 hrs by SRB assay relative to control
# Type: functional
# Conditions: read-out: GI
row,SMILES,inhibition of growth at 10 µM
1,CCCCc1nc(/C=N/Nc2nc(Nc3ccccc3)nc(Nc3ccc(S(N)(=O)=O)cc3)n2)c(Cl)[nH]1,< 10%

# Test system: NCI-H522
# Assay: Anticancer activity against human NCI-H522 cells assessed as cell growth inhibition at 10 uM incubated for 48 hrs by SRB assay relative to control
# Type: functional
# Conditions: read-out: GI
row,SMILES,inhibition of growth at 10 µM
1,CCCCc1nc(/C=N/Nc2nc(Nc3ccccc3)nc(Nc3ccc(S(N)(=O)=O)cc3)n2)c(Cl)[nH]1,58%

# Test system: COLO 205
# Assay: Anticancer activity against human COLO 205 cells assessed as cell growth inhibition at 10 uM incubated for 48 hrs by SRB assay relative to control
# Type: functional
# Conditions: read-out: GI
row,SMILES,inhibition of growth at 10 µM
1,CCCCc1nc(/C=N/Nc2nc(Nc3ccccc3)nc(Nc3ccc(S(N)(=O)=O)cc3)n2)c(Cl)[nH]1,27%

# Test system: HCC 2998
# Assay: Anticancer activity against human HCC 2998 cells assessed as cell growth inhibition at 10 uM incubated for 48 hrs by SRB assay relative to control
# Type: functional
# Conditions: read-out: GI
row,SMILES,inhibition of growth at 10 µM
1,CCCCc1nc(/C=N/Nc2nc(Nc3ccccc3)nc(Nc3ccc(S(N)(=O)=O)cc3)n2)c(Cl)[nH]1,29%

# Test system: HCT-116
# Assay: Anticancer activity against human HCT-116 cells assessed as cell growth inhibition at 10 uM incubated for 48 hrs by SRB assay relative to control
# Type: functional
# Conditions: read-out: GI
row,SMILES,inhibition of growth at 10 µM
1,CCCCc1nc(/C=N/Nc2nc(Nc3ccccc3)nc(Nc3ccc(S(N)(=O)=O)cc3)n2)c(Cl)[nH]1,< 10%

# Test system: HCT-15
# Assay: Anticancer activity against human HCT-15 cells assessed as cell growth inhibition at 10 uM incubated for 48 hrs by SRB assay relative to control
# Type: functional
# Conditions: read-out: GI
row,SMILES,inhibition of growth at 10 µM
1,CCCCc1nc(/C=N/Nc2nc(Nc3ccccc3)nc(Nc3ccc(S(N)(=O)=O)cc3)n2)c(Cl)[nH]1,< 10%

# Test system: HT-29
# Assay: Anticancer activity against human HT-29 cells assessed as cell growth inhibition at 10 uM incubated for 48 hrs by SRB assay relative to control
# Type: functional
# Conditions: read-out: GI
row,SMILES,inhibition of growth at 10 µM
1,CCCCc1nc(/C=N/Nc2nc(Nc3ccccc3)nc(Nc3ccc(S(N)(=O)=O)cc3)n2)c(Cl)[nH]1,< 10%

# Test system: SW-620
# Assay: Anticancer activity against human SW-620 cells assessed as cell growth inhibition at 10 uM incubated for 48 hrs by SRB assay relative to control
# Type: functional
# Conditions: read-out: GI
row,SMILES,inhibition of growth at 10 µM
1,CCCCc1nc(/C=N/Nc2nc(Nc3ccccc3)nc(Nc3ccc(S(N)(=O)=O)cc3)n2)c(Cl)[nH]1,24%

# Test system: SF-539
# Assay: Anticancer activity against human SF-539 cells assessed as cell growth inhibition at 10 uM incubated for 48 hrs by SRB assay relative to control
# Type: functional
# Conditions: read-out: GI
row,SMILES,inhibition of growth at 10 µM
1,CCCCc1nc(/C=N/Nc2nc(Nc3ccccc3)nc(Nc3ccc(S(N)(=O)=O)cc3)n2)c(Cl)[nH]1,18%

# Test system: SNB-19
# Assay: Anticancer activity against human SNB-19 cells assessed as cell growth inhibition at 10 uM incubated for 48 hrs by SRB assay relative to control
# Type: functional
# Conditions: read-out: GI
row,SMILES,inhibition of growth at 10 µM
1,CCCCc1nc(/C=N/Nc2nc(Nc3ccccc3)nc(Nc3ccc(S(N)(=O)=O)cc3)n2)c(Cl)[nH]1,69%

# Test system: SNB-75
# Assay: Anticancer activity against human SNB-75 cells assessed as cell growth inhibition at 10 uM incubated for 48 hrs by SRB assay relative to control
# Type: functional
# Conditions: read-out: GI
row,SMILES,inhibition of growth at 10 µM
1,CCCCc1nc(/C=N/Nc2nc(Nc3ccccc3)nc(Nc3ccc(S(N)(=O)=O)cc3)n2)c(Cl)[nH]1,< 10%
